Laboratory results reported in patent US6809065B2, “Herbicide containing substituted pyrazole derivative as active ingredient” (SDS Biotech K.K., priority 2001, dated 2004).

How the values were obtained:
soybean (Glycine max) [1] = test: Upland soil treatment (Test Example 2), crop; type: in vivo; details: soil surface treatment next day after sowing, 1 kg active ingredient per hectare, evaluated 21st day, lower index = higher safety
Method in brief: (§1)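 Scores were assigned 21 days after treatment on an index where higher means stronger weed control and, for crops, lower means greater safety. A wettable-powder formulation at 1 kg a.i./ha was applied to the soil surface one day after sowing seeds under about 1 cm of upland soil.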

[2] = test system: wheat (Triticum aestivum); test: Upland soil treatment (Test Example 2), crop; type: in vivo; details: soil surface treatment next day after sowing, 1 kg active ingredient per hectare, evaluated 21st day, lower index = higher safety
Method in brief: as §1

Echinochloa spp. = test: Paddy field treatment (Test Example 3); type: in vivo, Echinochloa crusgalli; details: paddy pot, submerged 4 cm, dropped on water surface 10th day after transplantation, 1 kg active ingredient per hectare, evaluated 21st day
Method in brief: (§2)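 Pot test, flooded paddy soil (4 cm water); weeds sown, 2-leaf rice (Koshihikari) transplanted. Day 10 post-transplant: WP dropped on water, 1 kg a.i./ha. Score index at 21 d after application; higher = stronger herbicidal effect.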

Chenopodium album [3] = test: Upland field foliage treatment (Test Example 1); type: in vivo; details: foliage treatment 14th day after sowing, wettable powder, 1 kg active ingredient per hectare, evaluated 21st day after application
Method in brief: (§3)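 Read-out is a visual index scored 21 days after treatment. Higher values mean more herbicidal effect on weeds and lower values mean better crop safety. Plants were raised from seed in upland soil and received a leaf-surface spray of 1 kg active ingredient per hectare at 14 days.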

Digitaria adscendens [4] = test: Upland field foliage treatment (Test Example 1); type: in vivo; details: foliage treatment 14th day after sowing, wettable powder, 1 kg active ingredient per hectare, evaluated 21st day after application
Method in brief: as §3

Stellaria media [5] = test: Upland field foliage treatment (Test Example 1); type: in vivo; details: foliage treatment 14th day after sowing, wettable powder, 1 kg active ingredient per hectare, evaluated 21st day after application
Method in brief: as §3

Setaria viridis [6] = test: Upland field foliage treatment (Test Example 1); type: in vivo; details: foliage treatment 14th day after sowing, wettable powder, 1 kg active ingredient per hectare, evaluated 21st day after application
Method in brief: as §3

soybean (Glycine max) [7] = test: Upland field foliage treatment (Test Example 1), crop; type: in vivo; details: foliage treatment 14th day after sowing, 1 kg active ingredient per hectare, evaluated 21st day, lower index = higher safety
Method in brief: as §3

[8] = test system: wheat (Triticum aestivum); test: as above; type: in vivo; details: foliage treatment 14th day after sowing, 1 kg active ingredient per hectare, evaluated 21st day, lower index = higher safety
Method in brief: as §3

Monochoria vaginalis = test: Paddy field treatment (Test Example 3); type: in vivo; details: paddy pot, submerged 4 cm, dropped on water surface 10th day after transplantation, 1 kg active ingredient per hectare, evaluated 21st day
Method in brief: as §2

Ammannia multiflora = test: Paddy field treatment (Test Example 3); type: in vivo; details: paddy pot, submerged 4 cm, dropped on water surface 10th day after transplantation, 1 kg active ingredient per hectare, evaluated 21st day
Method in brief: as §2

Scirpus juncoides = test: Paddy field treatment (Test Example 3); type: in vivo; details: paddy pot, submerged 4 cm, dropped on water surface 10th day after transplantation, 1 kg active ingredient per hectare, evaluated 21st day
Method in brief: as §2

Chenopodium album [9] = test: Upland soil treatment (Test Example 2); type: in vivo; details: soil surface treatment next day after sowing, wettable powder, 1 kg active ingredient per hectare, evaluated 21st day after application
Method in brief: as §1

Digitaria adscendens [10] = test: Upland soil treatment (Test Example 2); type: in vivo; details: soil surface treatment next day after sowing, wettable powder, 1 kg active ingredient per hectare, evaluated 21st day after application
Method in brief: as §1

Stellaria media [11] = test: Upland soil treatment (Test Example 2); type: in vivo; details: soil surface treatment next day after sowing, wettable powder, 1 kg active ingredient per hectare, evaluated 21st day after application
Method in brief: as §1

Setaria viridis [12] = test: Upland soil treatment (Test Example 2); type: in vivo; details: soil surface treatment next day after sowing, wettable powder, 1 kg active ingredient per hectare, evaluated 21st day after application
Method in brief: as §1

[13] = test system: rice (Oryza sative, variety: Koshihikari); test: Paddy field treatment (Test Example 3), crop; type: in vivo, Oryza sativa; details: transplanted rice two-leaf period, water surface treatment 10th day after transplantation, 1 kg active ingredient per hectare, evaluated 21st day, lower index = higher safety
Method in brief: as §2

Structure (SMILES)	Herbicidal activity Glycine max (soybean (Glycine max) [1])	Herbicidal activity Triticum aestivum [2]	Herbicidal activity Echinochloa spp. (Echinochloa spp.)	Herbicidal activity Chenopodium album (Chenopodium album [3])	Herbicidal activity Digitaria adscendens (Digitaria adscendens [4])	Herbicidal activity Stellaria media (Stellaria media [5])	Herbicidal activity Setaria viridis (Setaria viridis [6])	Herbicidal activity Glycine max (soybean (Glycine max) [7])	Herbicidal activity Triticum aestivum [8]	Herbicidal activity Monochoria vaginalis (Monochoria vaginalis)	Herbicidal activity Ammannia multiflora (Ammannia multiflora)	Herbicidal activity Scirpus juncoides (Scirpus juncoides)	Herbicidal activity Chenopodium album (Chenopodium album [9])	Herbicidal activity Digitaria adscendens (Digitaria adscendens [10])	Herbicidal activity Stellaria media (Stellaria media [11])	Herbicidal activity Setaria viridis (Setaria viridis [12])	Herbicidal activity Oryza sativa [13]
COC=C(Cn1cc(C)c(-c2ccccc2)n1)C(=O)OC [Compound 13]	0 (herbicidal effect of not less than 0% by weight and less than 10% by weight)	0 (herbicidal effect of not less than 0% by weight and less than 10% by weight)	5 (herbicidal effect of not less than 90% by weight)	5 (herbicidal effect of not less than 90% by weight)	5 (herbicidal effect of not less than 90% by weight)	5 (herbicidal effect of not less than 90% by weight)	5 (herbicidal effect of not less than 90% by weight)	0 (herbicidal effect of not less than 0% by weight and less than 10% by weight)	0 (herbicidal effect of not less than 0% by weight and less than 10% by weight)	5 (herbicidal effect of not less than 90% by weight)	5 (herbicidal effect of not less than 90% by weight)	5 (herbicidal effect of not less than 90% by weight)	5 (herbicidal effect of not less than 90% by weight)	5 (herbicidal effect of not less than 90% by weight)	5 (herbicidal effect of not less than 90% by weight)	5 (herbicidal effect of not less than 90% by weight)	0 (herbicidal effect of not less than 0% by weight and less than 10% by weight)
COC=C(Cn1nc(-c2cccc(C)c2)c(Cl)c1C)C(=O)OC [Compound 17]	0 (herbicidal effect of not less than 0% by weight and less than 10% by weight)	0 (herbicidal effect of not less than 0% by weight and less than 10% by weight)	5 (herbicidal effect of not less than 90% by weight)	5 (herbicidal effect of not less than 90% by weight)	4 (herbicidal effect of not less than 70% by weight and less than 90% by weight)	5 (herbicidal effect of not less than 90% by weight)	5 (herbicidal effect of not less than 90% by weight)	0 (herbicidal effect of not less than 0% by weight and less than 10% by weight)	0 (herbicidal effect of not less than 0% by weight and less than 10% by weight)	5 (herbicidal effect of not less than 90% by weight)	5 (herbicidal effect of not less than 90% by weight)	4 (herbicidal effect of not less than 70% by weight and less than 90% by weight)	4 (herbicidal effect of not less than 70% by weight and less than 90% by weight)	4 (herbicidal effect of not less than 70% by weight and less than 90% by weight)	4 (herbicidal effect of not less than 70% by weight and less than 90% by weight)	4 (herbicidal effect of not less than 70% by weight and less than 90% by weight)	0 (herbicidal effect of not less than 0% by weight and less than 10% by weight)
COC=C(Cn1nc(-c2cccc(Cl)c2Cl)c(Br)c1C)C(=O)OC [Compound 29]	0 (herbicidal effect of not less than 0% by weight and less than 10% by weight)	0 (herbicidal effect of not less than 0% by weight and less than 10% by weight)	4 (herbicidal effect of not less than 70% by weight and less than 90% by weight)	5 (herbicidal effect of not less than 90% by weight)	5 (herbicidal effect of not less than 90% by weight)	5 (herbicidal effect of not less than 90% by weight)	4 (herbicidal effect of not less than 70% by weight and less than 90% by weight)	1 (herbicidal effect of not less than 10% by weight and less than 30% by weight)	1 (herbicidal effect of not less than 10% by weight and less than 30% by weight)	5 (herbicidal effect of not less than 90% by weight)	5 (herbicidal effect of not less than 90% by weight)	4 (herbicidal effect of not less than 70% by weight and less than 90% by weight)	4 (herbicidal effect of not less than 70% by weight and less than 90% by weight)	4 (herbicidal effect of not less than 70% by weight and less than 90% by weight)	4 (herbicidal effect of not less than 70% by weight and less than 90% by weight)	4 (herbicidal effect of not less than 70% by weight and less than 90% by weight)	0 (herbicidal effect of not less than 0% by weight and less than 10% by weight)
COC=C(Cn1nc(-c2ccc(Cl)cc2Cl)c(Cl)c1C)C(=O)OC [Compound 21]	0 (herbicidal effect of not less than 0% by weight and less than 10% by weight)	0 (herbicidal effect of not less than 0% by weight and less than 10% by weight)	5 (herbicidal effect of not less than 90% by weight)	5 (herbicidal effect of not less than 90% by weight)	5 (herbicidal effect of not less than 90% by weight)	5 (herbicidal effect of not less than 90% by weight)	4 (herbicidal effect of not less than 70% by weight and less than 90% by weight)	1 (herbicidal effect of not less than 10% by weight and less than 30% by weight)	0 (herbicidal effect of not less than 0% by weight and less than 10% by weight)	5 (herbicidal effect of not less than 90% by weight)	5 (herbicidal effect of not less than 90% by weight)	4 (herbicidal effect of not less than 70% by weight and less than 90% by weight)	4 (herbicidal effect of not less than 70% by weight and less than 90% by weight)	4 (herbicidal effect of not less than 70% by weight and less than 90% by weight)	4 (herbicidal effect of not less than 70% by weight and less than 90% by weight)	4 (herbicidal effect of not less than 70% by weight and less than 90% by weight)	0 (herbicidal effect of not less than 0% by weight and less than 10% by weight)
